Eight compounds from patent US20060052319A9, “Sensitization of cells to cytotoxic agents using oligonucleotides directed to nucleotide excision repair or transcritpion coupled repair genes” (priority 2000, published 2006) can be followed below.

Data set [1] deals with A2780/CP70 ovarian carcinoma cells. The data set can be described thus: MTS cell proliferation assay, sensitization to oxidizing agents (hydrogen peroxide, gamma radiation). The class given is cell-based. Conditions: MTS assay after three days of growth; for sensitivity of cells to hydrogen peroxide: FIG. 7A; for sensitivity of cells to gamma radiation: FIG. 7B. The text has this: FIG. 7A is a graphic representation showing that oligonucleotides targeting CSB mRNA sensitize ovarian carcinoma cells to oxidative damage. A2780/CP70 ovarian carcinoma cells were transfected with oligonucleotides HYB 971 (SEQ ID NO:2) targeting CSB mRNA or control antisense oligonucleotide (HYB 1019) (SEQ ID NO:5) and then transferred to 96-well dishes for exposure to hydrogen peroxide at the indicated concentrations, followed by three days of growth in normal medium and subsequent assessment of cell proliferation via MTS assay.
FIG. 7B is a graphic representation showing that oligonucleotides targeting CSB mRNA sensitize ovarian carcinoma cells to oxidative damage. A2780/CP70 ovarian carcinoma cells were transfected with oligonucleotides HYB 971 (SEQ ID NO:2) targeting CSB mRNA or control antisense oligonucleotide (HYB 1019) (SEQ ID NO:5) and then transferred to 96-well dishes for exposure to gamma radiation at the indicated doses followed by three days of growth in normal medium and subsequent assessment of cell proliferation via MTS assay.
(§1) The cisplatin-resistant ovarian carcinoma cell line A2780/CP70 was maintained in RPMI-1640 medium supplemented with 10% fetal bovine serum, 1× penicillin -streptomycin-neomycin (PSN) (Gibco, Rockville, Md.) 2 mM L-glutamine and 0.2 units/ml insulin (Novo Nordisk Pharmaceuticals, Princeton, N.J.) at 37_C under a humidified 5% CO2 atmosphere. SV40-immortalized CS-B fibroblasts stably transfected with pCSB or control construct (generously provided by Dr. J. Hoeijmakers, Erasmus University, Rotterdam, Netherlands were maintained as previously described (Troelstra et al. (1992) Cell 71:939-953). SV40-immortalized CS-A cell lines (CS3BE.S3.G1+pDR2 and CS3BE.S3.G1+pDR2-CSA), were also maintained as described by Henning et al. (1995) Cell 82:555-564. DNA repair competent (GM 5659C), XP-A (GM2009), and XP-G (GM3021) fibroblasts were obtained from the National Institute of General Medical Sciences Human Genetic Mutant Cell Repository (Camden, N.J.) and maintained as described by Ratner et al. (1998) J. Biolog. Chem. 273:5184-5189. Gamma radiation was administered to cells in a 96 well plate with a Gamma Cell-40 Irradiator (Nordion International, Canada) while the 96 well plate was on ice.
(§2) P values reported are for the multiple comparison test.
Background: Tetrazolium dyes change colour on reduction, which living cells bring about.

Data set [2] has the same test system. The data set can be described thus: Plate assay of cell proliferation in the absence of added drug (cell number by hemacytometer). The class given is cell-based. Conditions: absence of any other anti-cancer agents, two days in culture. As for the experimental part: FIG. 8 is a graphic representation showing that anti-CSB oligonucleotides retard cell proliferation in the absence of cytotoxic agents. A2780/CP70 ovarian carcinoma cells were transfected with indicated oligonucleotides and maintained in culture media for two more days to assess cell proliferation rate.
A plate assay was also performed in the absence of added drug. Cells treated with oligonucleotides or mismatched controls were maintained in culture for two days. Cells were then trypsinized and cell number was determined using a hemacytometer. Numbers from three independent experiments were averaged and standard deviation was calculated. Statistical comparison was via paired t-test.

For data set [3], the system named is CSB mRNA. The data set can be described thus: RT-PCR analysis of CSB mRNA levels after oligonucleotide transfection. The class given is cell-based. To be noted: A2780/CP70 cells, 200 nM oligonucleotide with lipofectin, FIG. 3. The method, then:
(§3) Total RNA was isolated from 2×10^6 cells using a total RNA isolation kit (S.N.A.P., Invitrogen, Carlsbad, Calif.) as instructed and was quantitated spectrophotometrically via absorbance at 260 nm. RT-PCR analysis was performed using the Superscript One-Step RT-PCR System (Life Technologies, Rockville, Md.). Ten ng samples of total RNA were used for RT-PCR analyses because it was determined that quantities of RT-PCR products derived from XPA and CSB mRNA varied in a linear fashion when RT-PCR was performed on total RNA samples of 1-50 ng. For CSB, primers: […]
(§4) were selected to amplify a 235-bp segment.
(§5) RT-PCR amplification was performed for 40 cycles to detect low mRNA levels while remaining in the linear range of PCR. Aliquots of amplified DNA were resolved via 1.5% agarose gel electrophoresis and visualized by ethidium bromide staining.

Data set [4] concerns A2780/CP70 ovarian carcinoma cells. The data set can be described thus: MTS cell proliferation assay, sensitization to cisplatin or oxaliplatin after oligonucleotide transfection. To be noted: for reduction of the ID50 of cisplatin / reduction of the ID50 of oxaliplatin / sensitivity of the cells to cisplatin or oxaliplatin (cytotoxicity of both platinum agents): A2780/CP70 cells transfected with oligonucleotide, three days in drug, MTS assay; for potentiation of cisplatin or oxaliplatin, dose response curves normalized to HYB 1019-transfected cells: A2780/CP70 cells, normalized to control oligonucleotide.
Procedure: (§7) The oligonucleotides targeting CSB (969 and 971) were tested for their ability to sensitize A2780/CP70 cells to cisplatin or oxaliplatin. Cells were transfected with oligonucleotides and 24 hours later were replated on 96 well plates. After culturing in the presence of drug for another three days, cell viability was assessed by the MTS assay.
(§8) Delivery of oligonucleotides into A2780/CP70 cells for RT-PCR and cell proliferation assays was achieved using Lipofectin (Life Technologies, Rockville, Md.) as per the manufacturer's procedure. The final concentration of oligonucleotides was 200 nM and final concentration of lipofectin was 10 μg/ml. After 4 hours incubation with the lipofectin-oligonucleotides mixture, cells were replaced with normal culture medium and treated as indicated for subsequent assays.
(§9) For A2780/CP70 cells transfected with oligonucleotides or mismatched controls, cells were harvested via trypsinization 16-24 hrs after transfection and transferred to 96 well plates at 5×10^3 cells per well. […] Twenty-four hours after transfer, cells in quadruplicate wells were treated with cisplatin (Sigma, St. Louis, Mo.) in 2 mM phosphate buffered saline (PBS) or oxaliplatin National Cancer Institute) in 4 mM PBS at serial dilutions in culture medium or with no drug and maintained for three more days. Cell survival was quantitated using the CellTiter 96 Non-radioactive Cell Proliferation Assay (Promega, Madison, Wis.). […] A Trypan blue exclusion assay was also performed to verify that the values obtained via the cell titer assay correlated to numbers of viable cells. Readings from quadruplicate wells were averaged, normalized with respect to readings obtained from cells unexposed to drug, and are presented +/− standard deviation. Statistical significance was assessed via ANOVA (one-way followed by Dunnett's multiple comparison test) using the Prism software package (GraphPad, Inc. San Diego, Calif.). P values reported are for the multiple comparison test.

Data set [5] deals with XP-A fibroblasts. Kind of data set: MTS proliferation assay of XP-A fibroblasts versus NER proficient 5659C fibroblasts. Format: cell-based, human. As for the experimental part:
(§6) Primary fibroblasts from XPA, XPG, or repair-competent individuals were exposed to oxaliplatin and assayed as described in FIGS. 1A-D.
as §1, §2

In data set [6] the test system is Immortalized CS-A fibroblasts. The data set can be described thus: MTS proliferation assay of CS-A fibroblasts versus CSA-restored fibroblasts. To be noted: 3 days drug exposure. Format: cell-based. As for the experimental part:
as §1, §2

For data set [7], the system named is Immortalized CS-B fibroblasts. The data set can be described thus: MTS proliferation assay of CS-B fibroblasts versus CSB-restored fibroblasts. Format: cell-based. Conditions: 3 days drug exposure. As for the experimental part: as §1, §2
Data set [8] concerns XP-G fibroblasts. The data set can be described thus: MTS proliferation assay of XP-G fibroblasts versus NER proficient 5659C fibroblasts. The class given is cell-based, human. As for the experimental part: as §6, §1, §2
Data set [9] deals with XPA mRNA. Kind of data set: RT-PCR analysis of XPA mRNA levels after oligonucleotide transfection. Conditions: A2780/CP70 cells, 200 nM oligonucleotide with lipofectin, FIG. 3. Format: cell-based. The method, then:
as §3, §4, §5

The subject of data set [10] is A2780/CP70 cells. The data set can be described thus: Growth in soft agar (colony) assay with cisplatin or oxaliplatin. The class given is cell-based. Conditions: in the presence of either cisplatin or oxaliplatin, colonies counted 10 days later. As for the experimental part: An alternative method for assessing the ability of oligonucleotides to inhibit tumor cell proliferation was also utilized. In this method, the transfected cells were transferred to soft agar containing various concentrations of oxaliplatin or cisplatin. Resulting colonies were counted 10 days later.
For growth in soft agar assay, cells transfected the previous day with oligonucleotides as described above were suspended (10^4 cells/well) in 0.5 ml of 0.3% Difco Noble agar (Becton Dickinson & Co. Microbiology Systems, Sparks, Md.) supplemented with complete culture medium and layered over 0.5 ml of 0.8% agar-medium in chambers of 24 well plates. Drug was added (day 0) and colonies counted ten days later after staining with nitroblue tetrazolium (Sigma, St. Louis, Mo.) as previously described (Rockx, et al. (2000) Proc. Nat. Acad. Sci. (USA) 97:10503-8). For this assay, statistical comparison was via paired t-test.

Data set [11] relates to A2780/CP70 ovarian carcinoma cells.
Procedure: as §7, §8, §9

Like-named read-outs stand apart in the source and are kept apart here.

On to “5′-(3212)-d(GGAACATCATGGTCTGCTCC)-3′ [HYB 971]”, for which, in data set [1], the “sensitivity of cells to hydrogen peroxide” value was “significantly increased the sensitivity” and the “sensitivity of cells to gamma radiation” value is reported as “significantly increased the sensitivity”. Moreover, in [2], the “reduction of proliferation compared to control oligonucleotide (HYB 1019) or sham transfected cells” value is “about 50%”. In addition, in data set [3], the “reduction of CSB mRNA levels” value is reported as “about 50%”. For the same compound, in data set [4], the “reduction of the ID50 of cisplatin” value is 70%; the “reduction of the ID50 of oxaliplatin” value came out at 50%; the “sensitivity of the cells to cisplatin or oxaliplatin (cytotoxicity of both platinum agents)” value (from here on “sensitivity of the cells”) is “substantially enhanced the cytotoxicity”; the “potentiation of cisplatin or oxaliplatin, dose response curves normalized to HYB 1019-transfected cells” value is “robust potentiation”.

On to `O=C([O-])C(=O)[O-].[NH-][C@@H]1CCCC[C@H]1[NH-].[Pt+4]` (relative stereo) [oxaliplatin, Cis [(1R, 2R) 1,2-cyclohexanediamine-N,N′ oxalato (2-)-O,O′] platinum], for which the “sensitivity of XP-A fibroblasts versus NER proficient 5659C fibroblasts” value in [5] was “significantly more sensitive”. The “sensitivity of fibroblasts lacking functional CSA gene product versus restored WT” value in data set [6] is given as “significantly more sensitive”. The “sensitivity of fibroblasts lacking functional CSB gene product versus restored WT” value in data set [7] is reported as “significantly more sensitive”. For the same compound, the “sensitivity of XP-G fibroblasts versus NER proficient 5659C fibroblasts” value in data set [8] is “significantly more sensitive”.

Consider `N.N.[Cl][Pt][Cl]` [cisplatin, CIS-diamminedichloroplatinum], for which the “sensitivity of XP-A fibroblasts versus NER proficient 5659C fibroblasts” value in data set [5] is “significantly more sensitive”. Further, the “sensitivity of fibroblasts lacking functional CSA gene product versus restored WT” value in data set [6] is on record as “significantly more sensitive”. Further, in [7], the “sensitivity of fibroblasts lacking functional CSB gene product versus restored WT” value was “significantly more sensitive”. Besides, in data set [8], the “sensitivity of XP-G fibroblasts versus NER proficient 5659C fibroblasts” value was “significantly more sensitive”.

For “5′(590)-d(CCAAACCTGCACGATACATC)-3′ [HYB 1040, reference compound]”, the “XPA mRNA levels” value in data set [9] is given as “did not reduce the level of XPA mRNA”.

For “5′(750)-d(GGTCCATACTCATGTTGATG)-3′ (DNA, backbone and methylation of C not given here) [HYB 963]”, the “XPA mRNA levels” value in data set [9] is “reduce XPA mRNA levels”. Further, in data set [4], the “reduction of the ID50 of cisplatin” value is reported as “about 25%”, the “reduction of the ID50 of oxaliplatin” value is “about 25%” and the “sensitivity of the cells” value was “increase the sensitivity”.

As to “5′(1110)-d(CTGACCTACCACTTCTGCAC)-3′ [HYB 964]”, the “XPA mRNA levels” value in data set [9] is given as “reduce XPA mRNA levels”. Further, in data set [10], the “fewer colonies than control HYB 1040 or lipofectin-only (sham) transfected cells” value is “about 50%”. For the same compound, in data set [4], the “reduction of the ID50 of cisplatin” value is “about 25%”, the “reduction of the ID50 of oxaliplatin” value is on record as “about 25%” and the “sensitivity of the cells” value is listed as “increase the sensitivity”.

For “5′(1612)-d(GCTACATAAGACCAGTGTGC)-3′ (DNA, backbone and methylation of C not given here) [HYB 1019, reference compound]”, the “CSB mRNA levels” value in data set [3] is “did not reduce the level of CSB mRNA”. In addition, the “sensitivity of the cells” value in [4] was “did not alter the sensitivity”.

“5′(2037)-d(GGTGACAGCAGCATTTGGAT)-3′ (DNA, backbone not given here) [HYB 969]”: in data set [1], the “sensitivity of cells to hydrogen peroxide” value was “significantly increased the sensitivity” and the “sensitivity of cells to gamma radiation” value was “significantly increased the sensitivity”. In [2], the “reduction of proliferation compared to control oligonucleotide (HYB 1019) or sham transfected cells” value is given as “about 50%”. The “reduction of CSB mRNA levels” value in data set [3] is “about 50%”. Besides, in [4], the “reduction of the ID50 of cisplatin” value is listed as 70%; the “reduction of the ID50 of oxaliplatin” value was 50%; the “potentiation of cisplatin or oxaliplatin, dose response curves normalized to HYB 1019-transfected cells” value is listed as “robust potentiation”. In addition, the “sensitivity of the cells” value in data set [11] is listed as “substantially enhanced the cytotoxicity”.
